Calls of active or inactive are those of the source.
Columns and labels:
[1] = molecular target: T1, High affinity choline transporter 1 (Homo sapiens, UniProt Q9GZV3); test: CHT inhibitors, dose response, cell-based, 5-point CRC, membrane potential dye (AID 504840); type: functional
T1 sequence (Q9GZV3 whole entry): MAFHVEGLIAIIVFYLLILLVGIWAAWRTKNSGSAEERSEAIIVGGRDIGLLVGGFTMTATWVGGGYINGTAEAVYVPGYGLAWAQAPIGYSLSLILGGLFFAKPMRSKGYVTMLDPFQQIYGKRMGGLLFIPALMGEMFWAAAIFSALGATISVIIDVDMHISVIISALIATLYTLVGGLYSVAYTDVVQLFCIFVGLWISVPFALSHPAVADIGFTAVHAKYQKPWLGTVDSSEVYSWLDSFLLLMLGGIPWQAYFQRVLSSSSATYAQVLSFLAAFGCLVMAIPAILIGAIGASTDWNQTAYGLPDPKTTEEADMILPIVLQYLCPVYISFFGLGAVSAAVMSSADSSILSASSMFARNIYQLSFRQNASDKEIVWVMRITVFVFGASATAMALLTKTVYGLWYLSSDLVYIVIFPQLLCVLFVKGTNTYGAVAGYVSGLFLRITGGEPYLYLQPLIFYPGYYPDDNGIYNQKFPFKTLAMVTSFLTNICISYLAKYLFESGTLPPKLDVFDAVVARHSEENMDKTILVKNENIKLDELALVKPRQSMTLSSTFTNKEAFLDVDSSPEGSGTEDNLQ

Leucine aminopeptidase = molecular target: T2, Leucine aminopeptidase (Plasmodium falciparum 3D7, UniProt Q8IL11); test: P. falciparum M17LAP inhibitors, primary screen, biochemical, fluorogenic H-Leu-NHMec substrate, 1536-well (AID 1619); type: functional
T2 sequence (Q8IL11 whole entry): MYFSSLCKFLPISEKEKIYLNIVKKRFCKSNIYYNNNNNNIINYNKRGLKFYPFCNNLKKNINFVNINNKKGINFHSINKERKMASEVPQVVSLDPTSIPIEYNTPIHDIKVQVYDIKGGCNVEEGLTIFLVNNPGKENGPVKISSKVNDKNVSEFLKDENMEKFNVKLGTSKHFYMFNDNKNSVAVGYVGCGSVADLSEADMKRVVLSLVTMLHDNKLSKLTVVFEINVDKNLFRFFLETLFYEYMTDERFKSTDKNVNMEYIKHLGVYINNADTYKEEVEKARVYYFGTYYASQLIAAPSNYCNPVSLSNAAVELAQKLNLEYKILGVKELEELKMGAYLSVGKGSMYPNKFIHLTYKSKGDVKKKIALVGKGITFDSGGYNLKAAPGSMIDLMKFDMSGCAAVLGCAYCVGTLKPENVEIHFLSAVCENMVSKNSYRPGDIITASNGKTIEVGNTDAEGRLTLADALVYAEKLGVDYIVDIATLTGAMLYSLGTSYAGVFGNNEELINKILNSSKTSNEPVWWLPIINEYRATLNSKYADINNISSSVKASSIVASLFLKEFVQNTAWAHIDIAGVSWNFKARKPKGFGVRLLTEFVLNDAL

[2] = growth suppression of PTEN-null colon cells, dose response, cell-based, HCT116 PTEN knockout (AID 1047); type: functional;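 also: HCT116 colon tumor cells with PTEN knocked out; cells exposed to compound for 60 hours before readout; potency for loss of cell viability measured by luminescence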
[3] = growth suppression of beta-catenin-knockout colon cells, dose response, cell-based, HCT116, human colon tumor (AID 1045); type: functional;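 also: HCT116 colon tumor cells with beta catenin knocked out; cells exposed to compound for 60 hours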
[4] = molecular target: FAD-linked sulfhydryl oxidase ALR (Homo sapiens, UniProt P55789); test: inhibitors of human ALR sulfhydryl oxidase, dose response, biochemical, H2O2 detection, luminescence, cherry-pick (AID 493248)
BJ [5] = test: cells; type: functional, cell-based; settings: Homo sapiens
BJ [6] = test: cytotoxicity toward BJ-TERT-LT-ST fibroblasts, dose response, cell-based, RAS-independent, luminescence (AID 1935); type: functional; settings: Homo sapiens;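 also: BJ fibroblasts immortalized with TERT plus LT and ST oncogenes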
[7] = cytotoxicity toward DRD oncogenic fibroblasts, dose response, cell-based, non-viral oncogenic, luminescence (AID 1934); type: functional; settings: Homo sapiens
BJ [8] = test: cytotoxicity toward BJ-TERT fibroblasts, dose response, cell-based, RAS-independent, luminescence (AID 1933); type: functional; settings: Homo sapiens
[9] = Luminescence Cell-Based Dose Retest to Confirm Inhibitors of Cancer Stem Cells. [Related pubchem assays (depositor defined):AID2717, AID2721]; type: functional; settings: Homo sapiens
Cytochrome P450 2D6 = Cytochrome P450 2D6 (Homo sapiens, UniProt P10635);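 also: CYP2D6 member of a cytochrome P450 panel assay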
[10] = test system: Streptococcus sp. 'group A'; test: growth inhibition of control SK(-) GAS strain, dose response, counter-screen for streptokinase expression inhibitor project, luminescence, kanamycin, BacTiterGlo, confirmation (AID 1900); type: functional, organism-based
[11] = inhibitors of intracellular T. cruzi replication, confirmation, NIH3T3 host cells, beta-gal luminescence (AID 2044); type: functional, cell-based;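 also: intracellular parasites grown in NIH/3T3 mouse fibroblasts as host cells; luminescent beta-galactosidase reporter signal from transgenic T. cruzi replicating inside host cells; inhibitors lower the luminescence signal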
Streptokinase A = molecular target: T3, Streptokinase A (Streptococcus pyogenes serotype M1, UniProt P10520); test: S. pyogenes streptokinase expression inhibitors, potency, dose response, plasminogen activation absorbance, OD405 (AID 1914); type: functional, Streptococcus pyogenes M1 GAS;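 also: secreted streptokinase activity via plasminogen activation per viability signal from cell pellet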
T3 sequence (P10520 whole entry): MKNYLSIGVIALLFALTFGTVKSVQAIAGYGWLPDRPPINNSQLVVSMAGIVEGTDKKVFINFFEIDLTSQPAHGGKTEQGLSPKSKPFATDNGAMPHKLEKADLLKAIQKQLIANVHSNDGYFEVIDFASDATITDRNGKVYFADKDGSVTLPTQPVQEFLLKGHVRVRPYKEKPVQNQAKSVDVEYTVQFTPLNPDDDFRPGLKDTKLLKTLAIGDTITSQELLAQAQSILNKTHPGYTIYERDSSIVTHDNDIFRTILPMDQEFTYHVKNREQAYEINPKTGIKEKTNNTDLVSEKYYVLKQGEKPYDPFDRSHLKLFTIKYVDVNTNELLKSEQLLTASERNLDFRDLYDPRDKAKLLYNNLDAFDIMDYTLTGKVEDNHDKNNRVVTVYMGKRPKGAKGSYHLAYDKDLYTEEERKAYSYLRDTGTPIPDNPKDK

[12] = cytotoxicity toward NIH3T3 fibroblasts, dose response, counter-screen, cell-based, ATP luminescence, mouse fibroblasts (AID 2010); type: functional;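 also: cells exposed to compound for about 90 hours before reading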
Streptococcus = test: Group A Streptococcus viability loss, dose response, counter-screen for streptokinase expression inhibitor project, luminescence, BacTiterGlo (AID 1915); type: functional, organism-based;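 also: potency for reduction of bacterial viability or growth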
[13] = molecular target: T4, Polyadenylate-binding protein 1 (Homo sapiens, UniProt P11940); test: PABP1 MLLE–PAM2 interaction inhibitors, dose response, miRNA deadenylation inhibitor project, biochemical, fluorescence polarization, Cy5-PAM2 peptide, secondary (AID 602260); type: functional; settings: read-out: IC50_Mean
[14] = molecular target: T4, Polyadenylate-binding protein 1; test: PABP1 MLLE–PAM2 binding inhibitor potency, dose response, biochemical, fluorescence polarization, FITC-PAM2 peptide (AID 602259); type: functional; settings: read-out: IC50_Mean
[15] = molecular target: T5, RNA-binding protein pos-1 (Caenorhabditis elegans, UniProt G5EF15); test: inhibitors of POS-1/mex-3 RNA binding, dose response, biochemical, fluorescence polarization (AID 1964);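 also: purified POS-1 fused to maltose binding protein made in E. coli; potency of compounds blocking POS-1 binding to fluorescent RNA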
T5 sequence (G5EF15 whole entry): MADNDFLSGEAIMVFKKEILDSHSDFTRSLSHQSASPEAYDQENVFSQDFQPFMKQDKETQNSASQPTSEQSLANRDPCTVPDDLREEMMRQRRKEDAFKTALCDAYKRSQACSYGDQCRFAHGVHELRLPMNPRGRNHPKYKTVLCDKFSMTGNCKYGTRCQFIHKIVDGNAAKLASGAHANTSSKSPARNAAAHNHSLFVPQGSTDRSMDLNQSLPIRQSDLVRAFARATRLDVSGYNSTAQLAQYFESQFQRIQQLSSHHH

[16] = molecular target: T6, Zinc finger protein mex-5 (Caenorhabditis elegans, UniProt Q9XUB2); test: MEX-5/TCR-2 RNA interaction inhibitors, dose response, biochemical, C. elegans, fluorescence polarization (AID 1960)
T6 sequence (Q9XUB2 whole entry): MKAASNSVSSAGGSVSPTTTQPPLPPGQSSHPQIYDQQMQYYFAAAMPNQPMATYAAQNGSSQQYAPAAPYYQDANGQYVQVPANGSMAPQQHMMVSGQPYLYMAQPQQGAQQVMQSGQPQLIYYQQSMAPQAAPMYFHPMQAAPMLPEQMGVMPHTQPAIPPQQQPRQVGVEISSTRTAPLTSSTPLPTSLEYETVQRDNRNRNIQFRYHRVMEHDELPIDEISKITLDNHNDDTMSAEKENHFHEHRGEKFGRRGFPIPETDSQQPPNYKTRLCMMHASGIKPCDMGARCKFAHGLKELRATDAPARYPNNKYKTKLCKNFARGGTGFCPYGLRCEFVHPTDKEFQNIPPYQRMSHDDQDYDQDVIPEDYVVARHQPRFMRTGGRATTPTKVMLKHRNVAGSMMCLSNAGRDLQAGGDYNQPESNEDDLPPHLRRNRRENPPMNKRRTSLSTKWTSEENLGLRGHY

Chain of FAD-linked sulfhydryl oxidase ALR (P55789 whole entry): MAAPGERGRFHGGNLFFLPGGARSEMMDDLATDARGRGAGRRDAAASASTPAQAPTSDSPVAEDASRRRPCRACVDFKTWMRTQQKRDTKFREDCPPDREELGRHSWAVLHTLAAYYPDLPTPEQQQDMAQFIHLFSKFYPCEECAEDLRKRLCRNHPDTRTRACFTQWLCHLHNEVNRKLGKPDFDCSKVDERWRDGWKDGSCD
T4 sequence (P11940 whole entry): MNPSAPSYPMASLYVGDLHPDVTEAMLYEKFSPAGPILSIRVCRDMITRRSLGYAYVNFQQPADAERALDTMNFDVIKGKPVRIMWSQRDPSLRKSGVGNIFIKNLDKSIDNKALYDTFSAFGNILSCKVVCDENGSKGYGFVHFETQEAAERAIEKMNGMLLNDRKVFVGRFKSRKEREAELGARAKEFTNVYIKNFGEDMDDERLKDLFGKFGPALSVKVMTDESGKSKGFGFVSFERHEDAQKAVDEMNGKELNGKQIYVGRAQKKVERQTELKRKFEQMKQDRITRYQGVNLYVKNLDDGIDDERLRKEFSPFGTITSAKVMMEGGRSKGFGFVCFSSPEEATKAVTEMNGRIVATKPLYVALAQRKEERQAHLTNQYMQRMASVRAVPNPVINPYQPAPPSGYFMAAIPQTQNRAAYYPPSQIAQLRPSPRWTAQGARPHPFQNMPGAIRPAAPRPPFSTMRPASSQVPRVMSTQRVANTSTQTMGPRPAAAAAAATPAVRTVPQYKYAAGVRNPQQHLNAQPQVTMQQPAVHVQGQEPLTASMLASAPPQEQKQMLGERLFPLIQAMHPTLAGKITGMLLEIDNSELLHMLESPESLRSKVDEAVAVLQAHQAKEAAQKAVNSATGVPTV
Chain of Cytochrome P450 2D6 (P10635 whole entry): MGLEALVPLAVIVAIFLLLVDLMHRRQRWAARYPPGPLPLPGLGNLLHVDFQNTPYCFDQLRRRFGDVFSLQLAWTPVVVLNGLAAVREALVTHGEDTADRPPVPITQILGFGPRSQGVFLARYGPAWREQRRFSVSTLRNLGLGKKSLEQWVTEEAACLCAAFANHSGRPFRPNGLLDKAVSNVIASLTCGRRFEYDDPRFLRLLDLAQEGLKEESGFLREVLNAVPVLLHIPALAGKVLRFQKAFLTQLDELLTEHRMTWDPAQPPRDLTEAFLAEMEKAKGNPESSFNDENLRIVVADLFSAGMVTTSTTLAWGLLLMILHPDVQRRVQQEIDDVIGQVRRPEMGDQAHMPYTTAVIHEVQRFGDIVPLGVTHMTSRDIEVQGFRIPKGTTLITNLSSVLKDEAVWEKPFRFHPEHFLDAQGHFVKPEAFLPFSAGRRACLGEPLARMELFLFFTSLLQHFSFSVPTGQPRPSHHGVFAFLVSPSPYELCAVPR

## CC1(C)c2[nH]c3ccccc3c2C[C@@H]2C(=O)N(Cc3ccccc3)C(=O)N21
[1]
  IC50: 12.9 µM (active)

## O=C(CSc1nnc(NC2CCCCC2)s1)NN1C(=O)NC2(CCCCC2)C1=O
Leucine aminopeptidase
  IC50: 10.5 µM (active)

## CCCc1cc(C(=O)NN=C(S)NC(C)c2ccccc2)cs1 (configuration not stated)
[1]
  IC50: 12.6 µM (active)

## COc1cccc(/C=C2/SC(=O)N(CC(=O)N3CCc4ccccc4C3)C2=O)c1OCC(=O)O
Leucine aminopeptidase
  IC50: 16.2 µM (active)

## COc1ccc(C(=O)N2CCCCCC2)cc1OC1CCN(C(C)C)CC1
[1]
  IC50: 13.9 µM (active)

## CCOC(=O)c1cn(-c2ccc(F)c(F)c2)c2c(F)c(F)c(F)c(F)c2c1=O
[2]
  EC50: 19.5 µM (active)
[3]
  EC50: 22.4 µM (active)

## Cc1cccc(-c2cnn(-c3cccc([N+](=O)[O-])c3)c2N)c1
[4]
  AC50: 0.287 µM (active)

## CC(=O)Nc1sc(C)c(C)c1C(=O)OCC(=O)Nc1cc(S(=O)(=O)N2CCCCC2)ccc1Cl
[2]
  EC50: 43.1 µM (active)
[3]
  EC50: 133 µM (active)

## Nc1nn(-c2ccccc2)c(N)c1N=Nc1cccc(F)c1
BJ [5]
  EC50: 124 µM (active)
BJ [6]
  EC50: 36.7 µM (inconclusive)
[7]
  EC50: 1.94 µM (active)
BJ [8]
  EC50: 3.92 µM (active)

## Cc1ccc(-c2nc3ccccc3o2)cc1NC(=S)NC(=O)c1cc2ccccc2o1
[2]
  EC50: 5.17 µM (active)
[3]
  EC50: 4.68 µM (active)

## Cn1nc(C(F)(F)F)c(C(=O)Nc2cccc(C(F)(F)F)c2)c1SCc1ccc(Cl)cc1
[2]
  EC50: 22.4 µM (active)
[3]
  EC50: 26.7 µM (active)
[9]
  AC50: 6.27 µM (active)

## CCN(CC)c1ccc2c(c1)OC(N)=C(C#N)C2c1cccnc1 (configuration not stated)
Cytochrome P450 2D6
  AC50: 15.8 µM (inconclusive)
BJ [5]
  EC50: 0.341 µM (inconclusive)
BJ [6]
  EC50: 0.396 µM (inconclusive)
[7]
  EC50: 0.347 µM (active)
BJ [8]
  EC50: 0.368 µM (inconclusive)

## COc1ccccc1C(=O)N1CCN=C1SCc1cccnc1
[4]
  AC50: 0.009 µM (active)

## Cc1noc(NS(=O)(=O)c2ccc(N/C=C\C(=O)c3ccc4c(c3)OCO4)cc2)c1C
Leucine aminopeptidase
  IC50: 13.9 µM (active)

## CC1=C(C(=O)Nc2ccc([N+](=O)[O-])cc2)C(c2cccc(C(F)(F)F)c2)N=C(S)N1c1ccccc1 (configuration not stated)
[2]
  EC50: 9.06 µM (active)
[10]
  EC50: 7.84 µM (active)
[11]
  EC50: 2.05 µM (active)
Streptokinase A
  EC50: 18.8 µM (active)
[3]
  EC50: 11.5 µM (active)
[12]
  EC50: > 60 µM (inconclusive)
Streptococcus
  EC50: 20.5 µM (active)

## Cn1c(CCN2CCCCC2)nc2cc(NS(=O)(=O)c3ccc(F)cc3)ccc21
[2]
  EC50: 51.6 µM (active)
[3]
  EC50: 55.9 µM (active)

## CC(=O)Nc1cccc(NC(=O)Cc2nc(-c3ccccc3)sc2-c2ccc(C)cc2)c1
[2]
  EC50: 17.1 µM (active)
[3]
  EC50: 16.6 µM (active)

## Cc1ccc(NC(=O)CSc2nnc(NC(=O)CN3CCOCC3)s2)cc1
Leucine aminopeptidase
  IC50: 9.15 µM (active)

## O=C(CCNS(=O)(=O)c1ccccc1C(F)(F)F)N1CCN(c2ccccc2O)CC1
[4]
  AC50: 5.51 µM (active)

## Oc1cc(-c2ccccc2)nc2nc(COc3ccccc3)nn12
Leucine aminopeptidase
  IC50: 7.61 µM (active)

## CCN(CC)S(=O)(=O)c1cccc(-c2csc(C)n2)c1
[4]
  AC50: 4.41 µM (active)

## COc1ccc(-c2cc(=O)oc3cc(OC(C)C(=O)O)ccc23)cc1 (configuration not stated)
Leucine aminopeptidase
  IC50: 43.9 µM (active)

## COc1ccc(S(=O)(=O)N2CCN=C2SCc2cccnc2)cc1
[4]
  AC50: 0.243 µM (active)

## O=C(O)CCc1ccc(-c2ccc(Cl)cc2)o1
[4]
  AC50: 2.22 µM (active)

## Cc1cccc(C(=O)Nc2nnc(-c3ccncc3)o2)c1
[4]
  AC50: 2.35 µM (active)

## CCOc1ccccc1NC(=O)Nc1ccc(OC)nc1
[13]
  IC50: > 66 µM (inactive)
[14]
  IC50: 35.9 µM (inactive)
[15]
  EC50: 31.6 µM (active)
[16]
  EC50: 29.5 µM (active)

## COc1ccc(-c2cc(-c3ccc(N)cc3)nc(N)c2C#N)cc1OC
[4]
  AC50: 0.794 µM (active)

## COC(=O)c1ccccc1NC(=O)CN1C(=O)c2ccccc2S1(=O)=O
Leucine aminopeptidase
  IC50: 18.1 µM (active)

## Cc1cccc(Nc2nc(N)nc(CC(=O)CSc3ccc(Cl)cc3)n2)c1
[2]
  EC50: 56 µM (active)
[3]
  EC50: 35.6 µM (active)

## COc1cc(C(=O)NCC(=O)N2CCN(S(=O)(=O)c3cc(C)ccc3C)CC2)cc(OC)c1OC
BJ [5]
  EC50: 31.8 µM (active)
BJ [6]
  EC50: 16.3 µM (active)
[7]
  EC50: 14.5 µM (active)
BJ [8]
  EC50: 13.4 µM (active)

Source: ChEMBL document CHEMBL1201862, “PubChem BioAssay data set” (2004)
